The source of these data is patent publication US20240368158A1, “KINASE MODULATORS, COMPOSITIONS COMPRISING THE KINASE MODULATOR, AND METHODS OF USING THE SAME” (BIOFRONT LTD, priority 2021, published 2024).

Assay [1] deals with HPK1 p-SLP-76 in Jurkat cells. As to the kind of experiment: HPK1 p-SLP-76 inhibition assay in Jurkat cells (HTRF). The following applies: Homo sapiens, 4 h compound, anti-CD3 stimulation 20 min. Format: cell-based. The method, then:
Before compound treatment, Jurkat cells were starved in PRMI-1640 medium supplemented with 0.5% FBS overnight. The cell density was adjusted to 1*10^7 cells/mL in assay medium (RPMI-1640 no phenol red with 0.5% FBS) and 16 uL cell suspension was transferred per well to a 384-well plate (Corning #3765). […] of test compound was prepared in assay medium and 4 uL was added per well to the 384-well plate. The plate was then incubated at 37° C., 5% CO2 for 4 h. Jurkat cells in 384-well plate were stimulated with anti-CD3 (BD Biosciences #555329, final conc. is 10 ug/mL) for 20 min at 37° C., 5% CO2 by adding 4 uL 6× antibody solution per well. Phospho-SLP76 HTRF kit was purchased from Cisbio (63ADK076PEH). 8 uL 4× Lysis Buffer was added to 384-well plate after anti-CD3 stimulation. The plate was centrifuged at 1,000 rpm for 1 min, shaken at 250 rpm for 60 min and centrifuged again at 1,000 rpm for 5 min. Afterwards the cell lysates were transferred to the assay plate (Greiner #784075) with 16 uL per well. 4 uL detection antibody mix per well prepared in Detection Buffer was added to the assay plate, followed by centrifugation at 1,000 rpm for 1 min and incubation at 25° C. overnight. The fluorescence emission at two different wavelengths (665 nm and 620 nm) was read by an HTRF compatible microplate reader and the IC50 value of the compound was calculated.

Assay [2] has as its target T1, HPK1 (Homo sapiens, UniProt Q92918).
T1 construct: purchased Signal Chem M23-11G-10
T1 sequence (Q92918 1-346 limits assumed): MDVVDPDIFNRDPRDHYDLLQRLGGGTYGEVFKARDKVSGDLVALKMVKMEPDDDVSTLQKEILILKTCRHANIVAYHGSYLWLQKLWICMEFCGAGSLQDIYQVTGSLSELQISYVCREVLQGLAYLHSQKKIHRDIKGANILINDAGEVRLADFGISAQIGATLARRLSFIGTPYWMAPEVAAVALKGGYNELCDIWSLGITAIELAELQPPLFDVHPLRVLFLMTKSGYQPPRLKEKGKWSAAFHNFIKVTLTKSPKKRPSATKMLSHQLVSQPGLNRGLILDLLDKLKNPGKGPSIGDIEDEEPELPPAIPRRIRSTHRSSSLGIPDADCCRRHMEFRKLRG
As to the kind of experiment: HPK1 enzyme inhibition assay (ADP-Glo). The following applies: MBP substrate, ATP. Format: biochemical. The protocol: The compound was dissolved in 100% DMSO at the concentration of 10 mM. The HPK1 protein was purchased from Signal Chem (M23-11G-10). 2.5 μL per well of 2×HPK1 protein was added to assay plate containing the test compound, centrifuged at 1500 rpm for 1 minute, and then incubated at 25° C. for 60 minutes. MBP protein was purchased from Signal Chem (M42-51N) and ATP was purchased from Promega (V9102). The two were added 2.5 μL per well mixture of 2×MBP (0.2 ug/ul) and ATP (20 μM), centrifuged at 1500 rpm for 1 minute, then incubated at 25° C. for 60 minutes. Then added 5 μL of ADP-Glo from Promega (V9102) to the assay plate and depleted the unconsumed ATP for 60 minutes. Then centrifuged at 1500 rpm for 1 minute and incubated at 25° C. for 60 minutes. Finally, 10 μL of the kinase assay reagent from Promega (V9102) was added to the assay plate to convert ADP to ATP, centrifuged at 1500 rpm for 1 minute, incubate at 25° C. for 40 minutes. After 40 minutes incubation, the […] was determined. Based on the results, the IC50 value of the compound was calculated.

Some results are limits rather than exact numbers.

On to `O=C1CNCCN1c1cccc(-c2cnc3[nH]cc(C4CC4)c3c2Cl)n1` [Example 15, 1-(6-(4-chloro-3-cyclopropyl-1H-pyrrolo[2,3-b]pyridin-5-yl)pyridin-2-yl)piperazin-2-one], for which the IC50 in assay [1] was at most 300 nM; in assay [2], at most 10 nM.
As to `CCc1c[nH]c2ncc(-c3cccc(N4CCN(C(=O)[C@@H](N)C(C)C)CC4=O)c3)c(Cl)c12` [Example 42, 4-(L-valyl)-1-(3-(4-chloro-3-ethyl-1H-pyrrolo[2,3-b]pyridin-5-yl)phenyl)piperazin-2-one], the 50% inhibitory concentration (IC50) in assay [1] lay within 3000 to 10000 nM; in assay [2] it was 10 to 100 nM.
For the compound `COCCS(=O)(=O)N1CCN(c2cccc(-c3cnc4[nH]cc(CC(F)F)c4c3Cl)c2)C(=O)C1` [Example 62, 1-(3-(4-chloro-3-(2,2-difluoroethyl)-1H-pyrrolo[2,3-b]pyridin-5-yl)phenyl)-4-((2-methoxyethyl)sulfonyl)piperazin-2-one], the 50% inhibitory concentration (IC50) was 300 to 3000 nM in assay [1] and at most 10 nM in assay [2].
`CC1CN(CCCS(=O)(=O)N2CCN(c3cccc(-c4cnc5[nH]cc(C6CC6)c5c4Cl)c3)C(=O)C2)C1` [Example 57, 1-(3-(4-chloro-3-cyclopropyl-1H-pyrrolo[2,3-b]pyridin-5-yl)phenyl)-4-((3-(3-methylazetidin-1-yl)propyl)sulfonyl)piperazin-2-one]: the IC50 was 300 to 3000 nM in assay [1] and at most 10 nM in assay [2].
Taken in the same sequence, the figures for `CCc1c[nH]c2ncc(-c3cccc(N4CCN(C(=O)CN(C)C)CC4=O)c3)c(Cl)c12` [Example 31, 1-(3-(4-chloro-3-ethyl-1H-pyrrolo[2,3-b]pyridin-5-yl)phenyl)-4-(dimethylglycyl)piperazin-2-one] were 300 to 3000 nM and at most 10 nM.
Taken in the same sequence, the figures for `O=C1CNCCN1c1cccc(-c2cnc3[nH]cc(C#CC4CC4)c3c2Cl)c1` [Example 5, 1-(3-(4-chloro-3-(cyclopropylethynyl)-1H-pyrrolo[2,3-b]pyridin-5-yl)phenyl) piperazin-2-one] were above 10000 nM and at most 10 nM.
For the compound `O=C1CNCCN1c1cc(-c2cnc3[nH]cc(C4CC4)c3c2Cl)ccn1` [Example 18, 1-(4-(4-chloro-3-cyclopropyl-1H-pyrrolo[2,3-b]pyridin-5-yl)pyridin-2-yl)piperazin-2-one], the figures for the IC50 in assay [1] and in assay [2] were 3000 to 10000 nM and 10 to 100 nM, respectively.
Consider `CN(C)CC#Cc1c[nH]c2ncc(-c3cccc(N4CCNCC4=O)c3)c(Cl)c12` [Example 8, 1-(3-(4-chloro-3-(3-(dimethylamino)prop-1-yn-1-yl)-1H-pyrrolo[2,3-b]pyridin-5-yl)phenyl)piperazin-2-one], for which the IC50 in assay [1] was above 10000 nM; in assay [2], above 1000 nM.
The corresponding values for `CC(C)(C)C#Cc1c[nH]c2ncc(-c3cccc(N4CCNCC4=O)c3)c(Cl)c12` [Example 3, 1-(3-(4-chloro-3-(3,3-dimethylbut-1-yn-1-yl)-1H-pyrrolo[2,3-b]pyridin-5-yl)phenyl) piperazin-2-one] are 300 to 3000 nM and 100 to 1000 nM.
Turning to `CCc1c[nH]c2ncc(-c3cccc(N4CCN(S(C)(=O)=O)CC4=O)c3)c(Cl)c12` [Example 52, 1-(3-(4-chloro-3-ethyl-1H-pyrrolo[2,3-b]pyridin-5-yl)phenyl)-4-(methylsulfonyl) piperazin-2-one], the results for the IC50 in assay [1] and in assay [2] were 300 to 3000 nM and at most 10 nM, respectively.
As for `CCc1c[nH]c2ncc(-c3cc(N4CCNCC4=O)ccc3CNC)cc12` [Example 41, 1-(3-(3-ethyl-1H-pyrrolo[2,3-b]pyridin-5-yl)-4-((methylamino)methyl)phenyl)piperazin-2-one], the IC50 was above 10000 nM in assay [1] and above 1000 nM in assay [2].
Taken in the same sequence, the figures for `CCc1c[nH]c2ncc(-c3cccc(N4CCCC(CO)C4=O)c3)c(Cl)c12` (racemic) [Example 22, 1-(3-(4-chloro-3-ethyl-1H-pyrrolo[2,3-b]pyridin-5-yl)phenyl)-3-(hydroxymethyl)piperidin-2-one] were 300 to 3000 nM and at most 10 nM.
The corresponding values for `CCc1c[nH]c2ncc(-c3cc(N4CCNCC4=O)ccc3CN(C)C)cc12` [Example 40, 1-(4-((dimethylamino)methyl)-3-(3-ethyl-1H-pyrrolo[2,3-b]pyridin-5-yl)phenyl)piperazin-2-one] are above 10000 nM and above 1000 nM.
With `CCc1c[nH]c2ncc(-c3cccc(N4CCN(C(=O)CO[C@@H]5O[C@H](CO)[C@@H](O)[C@H](O)[C@H]5O)CC4=O)c3)c(Cl)c12` [Example 49, 1-(3-(4-chloro-3-ethyl-1H-pyrrolo[2,3-b]pyridin-5-yl)phenyl)-4-(2-(((2R,3R,4S,5S,6R)-3,4,5-trihydroxy-6-(hydroxymethyl)tetrahydro-2H-pyran-2-yl)oxy)acetyl)piperazin-2-one], the half-inhibitory concentration (IC50) in assay [1] was above 10000 nM; in assay [2], at most 10 nM.
Taken in the same sequence, the figures for `O=C1CNCCN1c1cccc(-c2cnc3[nH]cc(CC(F)F)c3c2Cl)c1` [Example 12, 1-(3-(4-chloro-3-(2,2-difluoroethyl)-1H-pyrrolo[2,3-b]pyridin-5-yl)phenyl)piperazin-2-one] were 300 to 3000 nM and at most 10 nM.
Taken in the same sequence, the figures for `CCc1c[nH]c2ncc(-c3cccc(N4CCC[C@H](CO)C4=O)c3)c(Cl)c12` [Example 23, (R)-1-(3-(4-chloro-3-ethyl-1H-pyrrolo[2,3-b]pyridin-5-yl)phenyl)-3-(hydroxymethyl)piperidin-2-one] were 300 to 3000 nM and at most 10 nM.
Regarding `CCc1c[nH]c2ncc(-c3cc(N4CCNCC4=O)ccc3F)c(Cl)c12` [Example 17, 1-(3-(4-chloro-3-ethyl-1H-pyrrolo[2,3-b]pyridin-5-yl)-4-fluorophenyl)piperazin-2-one], the figures for the IC50 in assay [1] and in assay [2] were 300 to 3000 nM and 10 to 100 nM, respectively.
The corresponding values for `Cn1cnc(C#Cc2c[nH]c3ncc(-c4cccc(N5CCNCC5=O)c4)c(Cl)c23)n1` [Example 14, 1-(3-(4-chloro-3-((1-methyl-1H-1,2,4-triazol-3-yl)ethynyl)-1H-pyrrolo[2,3-b]pyridin-5-yl)phenyl)piperazin-2-one] are above 10000 nM and 10 to 100 nM.
For the compound `CCc1c[nH]c2ncc(-c3cccc(N4CCN(C(=O)OC)CC4=O)c3)c(Cl)c12` [Example 27, Methyl 4-(3-(4-chloro-3-ethyl-1H-pyrrolo[2,3-b]pyridin-5-yl)phenyl)-3-oxopiperazine-1-carboxylate], the IC50 in assay [1] is at most 300 nM; in assay [2], at most 10 nM.
With `Cc1ccc(C#Cc2c[nH]c3ncc(-c4cccc(N5CCNCC5=O)c4)c(Cl)c23)cn1` [Example 13, 1-(3-(4-chloro-3-((6-methylpyridin-3-yl)ethynyl)-1H-pyrrolo[2,3-b]pyridin-5-yl)phenyl)piperazin-2-one], the figures for the 50% inhibitory concentration (IC50) in assay [1] and in assay [2] were 3000 to 10000 nM and 10 to 100 nM, respectively.
On to `O=C1CN(S(=O)(=O)CCCN2CCOCC2)CCN1c1cccc(-c2cnc3[nH]cc(CC(F)F)c3c2Cl)c1` [Example 59, 1-(3-(4-chloro-3-(2,2-difluoroethyl)-1H-pyrrolo[2,3-b]pyridin-5-yl)phenyl)-4-((3-morpholinopropyl)sulfonyl)piperazin-2-one], for which the IC50 was 300 to 3000 nM in assay [1] and at most 10 nM in assay [2].
On to `CN(C)CC(=O)N1CCN(c2cccc(-c3cnc4[nH]cc(C#Cc5cccnc5)c4c3Cl)c2)C(=O)C1` [Example 30, 1-(3-(4-chloro-3-(pyridin-3-ylethynyl)-1H-pyrrolo[2,3-b]pyridin-5-yl)phenyl)-4-(dimethylglycyl)piperazin-2-one], for which the IC50 in assay [1] was in the range of 300 to 3000 nM; in assay [2], 10 to 100 nM.
Turning to `O=C1CNCCN1c1cccc(-c2cnc3[nH]cc(C#Cc4cccnc4)c3c2Cl)c1` [Example 6, 1-(3-(4-chloro-3-(pyridin-3-ylethynyl)-1H-pyrrolo[2,3-b]pyridin-5-yl)phenyl)piperazin-2-one], the IC50 in assay [1] lay in the range of 300 to 3000 nM; in assay [2] it was 10 to 100 nM.
